Source: patent publication US8354403B2, “Pyrrolidine derived beta 3 adrenergic receptor agonists” (Merck Sharp & Dohme Corp., priority 2009, dated 2013)

target: T1, human β3 adrenergic receptor (Homo sapiens, UniProt P13945); assay: Beta-3 agonist in vitro functional assay: cAMP production (LANCE TR-FRET) in CHO cells stably transfected with the cloned β3 receptor; type: cell-based; conditions: Table 4; cAMP, CHO cells; read-out: Human β3 agonist functional activity
T1 construct: expressed in transfected cells; host or cells: Chinese hamster ovary (CHO) cells, stably transfected
Summary of the method: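 CHO cells stably expressing the cloned receptor, in HEPES-buffered HBSS with BSA and 0.6 mM IBMX, 6,000 cells/well, exposed to compound for 30 min at RT. cAMP read by LANCE TR-FRET against a cAMP standard curve. Isoproterenol defines maximal stimulation.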

T1 sequence (P13945 whole entry): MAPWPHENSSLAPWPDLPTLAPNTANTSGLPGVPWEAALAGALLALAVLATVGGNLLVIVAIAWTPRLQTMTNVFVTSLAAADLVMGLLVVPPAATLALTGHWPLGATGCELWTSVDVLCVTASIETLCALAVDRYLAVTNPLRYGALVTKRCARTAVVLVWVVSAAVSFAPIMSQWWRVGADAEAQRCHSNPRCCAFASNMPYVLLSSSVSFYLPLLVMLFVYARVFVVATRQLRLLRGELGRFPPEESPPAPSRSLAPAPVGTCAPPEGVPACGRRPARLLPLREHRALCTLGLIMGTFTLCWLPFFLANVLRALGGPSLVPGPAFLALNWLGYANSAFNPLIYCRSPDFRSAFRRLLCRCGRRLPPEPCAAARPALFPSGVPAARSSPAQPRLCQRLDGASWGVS

SMILES	EC50
O=C(c1ccc(C[C@@H]2CC[C@H]([C@H](O)c3ccccc3)N2)cc1)N1CC2CN(Cc3ccccn3)CC2C1 (stereo partly drawn) [Example 17]	0.1 to 0.999 µM
O=C(c1ccc(C[C@@H]2CC[C@H]([C@H](O)c3ccccc3)N2)cc1)N1CCCC(c2nc3ccccc3[nH]2)C1 (stereo partly drawn) [Example 34]	0.1 to 0.999 µM

Next, values leading:

EC50	SMILES
0.1 to 0.999 µM	O=C(c1ccc(C[C@@H]2CC[C@H]([C@H](O)c3ccccc3)N2)cc1)N1CC2CCNC2C1 (stereo partly drawn) [Example 24]
0.999 to 3 µM	Cc1noc(C2CCCCN2C(=O)c2ccc(C[C@@H]3CC[C@H]([C@H](O)c4ccccc4)N3)cc2)n1 (stereo partly drawn) [Example 49]
0.1 to 0.999 µM	CCS(=O)(=O)n1cc2c(n1)CN(C(=O)c1ccc(C[C@@H]3CC[C@H]([C@H](O)c4ccccc4)N3)cc1)C2 [Example 29]
0.01 to 0.0999 µM	O=C(c1ccc(C[C@@H]2CC[C@H]([C@H](O)c3ccccc3)N2)cc1)N1Cc2cocc2C1 [Example 26]

same assay, conditions: Table 5; cAMP, CHO cells; read-out: Human β3 agonist functional activity

SMILES	EC50
O=C(c1ccc(C[C@@H]2CC[C@H]([C@H](O)c3ccccc3)N2)cc1)N1CCC(S(=O)(=O)c2cccc(F)c2)CC1 [Example 130]	0.001 to 0.0099 µM
Cc1ccc(S(=O)(=O)C2CCN(C(=O)c3ccc(C[C@@H]4CC[C@H]([C@H](O)c5cccnc5)N4)cc3)CC2)cc1 [Example 135]	0.1 to 0.999 µM
Nc1nnc(C2CCN(C(=O)c3ccc(C[C@@H]4CC[C@H]([C@H](O)c5ccccc5)N4)cc3)CC2)o1 [Example 99]	0.01 to 0.0999 µM

The remaining lines, values ahead:

EC50	SMILES
0.01 to 0.0999 µM	O=C(c1ccc(C[C@@H]2CC[C@H]([C@H](O)c3ccccc3)N2)cc1)N1CCC(Cc2ccc(F)cc2)CC1 [Example 145]
< 0.001 µM	O=C(c1ccc(C[C@@H]2CC[C@H]([C@H](O)c3ccccc3)N2)cc1)N1CCC(c2nnnn2C2CC2)CC1 [Example 110]

same assay, conditions: Table 8; Beta-3 agonist in vitro functional assay; read-out: Human β3 agonist functional activity

EC50	SMILES
0.01 to 0.0999 µM	O=C(c1ccc(C[C@@H]2CC[C@H]([C@H](O)c3ccccc3)N2)cc1)N1CCC(c2ccccc2)(c2nnn[nH]2)CC1 [Example 242]
0.001 to 0.0099 µM	O=C(c1ccc(C[C@@H]2CC[C@H]([C@H](O)c3cccnc3)N2)cc1)N1CCC2(CC1)C(=O)NCN2c1ccccc1 [Example 259]
0.001 to 0.0099 µM	O=C(c1ccc(C[C@@H]2CC[C@H]([C@H](O)c3ccccc3)N2)cc1)N1CCC2(CCNC2)CC1 [Example 306]
0.01 to 0.0999 µM	O=C1CC2(CCN(C(=O)c3ccc(C[C@@H]4CC[C@H]([C@H](O)c5cccnc5)N4)cc3)CC2)Sc2ccccc21 [Example 327]
0.1 to 0.999 µM	CCCN(CCC)C(=O)CC1(c2ccccc2)CCN(C(=O)c2ccc(C[C@@H]3CC[C@H]([C@H](O)c4ccccc4)N3)cc2)CC1 [Example 248]

same assay, conditions: Table 9; Beta-3 agonist in vitro functional assay; read-out: Human β3 agonist functional activity

EC50	SMILES
0.01 to 0.0999 µM	Cc1noc(C(C)N2CCN(C(=O)c3ccc(C[C@@H]4CC[C@H]([C@H](O)c5ccccc5)N4)cc3)CC2)n1 (stereo partly drawn) [Example 422]
0.1 to 0.999 µM	O=C(c1ccc(C[C@@H]2CC[C@H]([C@H](O)c3cccnc3)N2)cc1)N1CCN(c2nccs2)CC1 [Example 379]
0.01 to 0.0999 µM	O=C(c1ccc(C[C@@H]2CC[C@H]([C@H](O)c3ccccc3)N2)cc1)N1CCN(c2ncccc2-c2ccc(F)cc2)CC1 [Example 369]

same assay, conditions: Table 10; Beta-3 agonist in vitro functional assay; read-out: Human β3 agonist functional activity

EC50	SMILES
0.01 to 0.0999 µM	CC(C(=O)N1CCc2cnccc2C1)N1CCN(C(=O)c2ccc(C[C@@H]3CC[C@H]([C@H](O)c4ccccc4)N3)cc2)CC1 (stereo partly drawn) [Example 508]
0.01 to 0.0999 µM	CC(C(=O)NC1CCS(=O)(=O)CC1)N1CCN(C(=O)c2ccc(C[C@@H]3CC[C@H]([C@H](O)c4ccccc4)N3)cc2)CC1 (stereo partly drawn) [Example 469]
0.01 to 0.0999 µM	CC(C)[C@@H](C)NC(=O)C(C)N1CCN(C(=O)c2ccc(C[C@@H]3CC[C@H]([C@H](O)c4ccccc4)N3)cc2)CC1 (stereo partly drawn) [Example 441]

same assay, conditions: Table 12; human β3 functional activity given as ranges; read-out: Human β3 agonist functional activity

EC50	SMILES
0.01 to 0.0999 µM	O=C(c1ccc(CC2CCC(C(O)c3ccccc3)N2)cc1)N1CCN(C(c2ccccn2)C2CC2)CC1 (single isomer, unassigned) [Example 589]

same assay, conditions: given as a range; cAMP, CHO cells; read-out: human β3 functional activity

EC50	SMILES
0.001 to 0.0099 µM	O=C(c1ccc(C[C@@H]2CC[C@H]([C@H](O)c3ccccc3)N2)cc1)N1C[C@@H]2C(n3cnnn3)[C@@H]2C1 (stereo partly drawn) [Example 169, (R)-phenyl[(2R,5S)-5-(4-{[(1R,5S,6r)-6-(1H-tetraol-1-yl)-3-azabicyclo[3.1.0]hex-3yl]carbonyl}benzyl)pyrrolidine-2-yl]methanol]
